Experimental data from patent US20250320193A1, “OXOISOINDOLINYL SUBSTITUTED PIPERIDINEDIONE DERIVATIVE AND USE THEREOF” (GLUETACS THERAPEUTICS (SHANGHAI) CO., LTD., priority 2022, published 2025).

Columns and labels:
GSPT1 = GSPT1 (Homo sapiens (Human), UniProt P15170+Q96SW2); experiment: Western blot, substrate protein expression in hPBMC: GSPT1; type: cell-based; conditions: hPBMC, compound 500 nM, 24 hours, Western blot
How it was run: (§1)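 hPBMC, 1×10^6 cells/mL, 24 h compound exposure; RIPA lysis, BCA protein assay, SDS-PAGE, NC membrane immunoblot. Densitometry vs internal control → % protein remaining; degradation % = 100% − remaining; DC50 = conc. at 50% of DMSO band signal.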

IKZF3 = IKZF3 (Homo sapiens (Human), UniProt Q96SW2+Q9UKT9); experiment: Western blot, substrate protein expression in hPBMC: IKZF3; type: cell-based; conditions: hPBMC, compound 500 nM, 24 hours, Western blot
Chain of IKZF3 (Q9UKT9 whole entry): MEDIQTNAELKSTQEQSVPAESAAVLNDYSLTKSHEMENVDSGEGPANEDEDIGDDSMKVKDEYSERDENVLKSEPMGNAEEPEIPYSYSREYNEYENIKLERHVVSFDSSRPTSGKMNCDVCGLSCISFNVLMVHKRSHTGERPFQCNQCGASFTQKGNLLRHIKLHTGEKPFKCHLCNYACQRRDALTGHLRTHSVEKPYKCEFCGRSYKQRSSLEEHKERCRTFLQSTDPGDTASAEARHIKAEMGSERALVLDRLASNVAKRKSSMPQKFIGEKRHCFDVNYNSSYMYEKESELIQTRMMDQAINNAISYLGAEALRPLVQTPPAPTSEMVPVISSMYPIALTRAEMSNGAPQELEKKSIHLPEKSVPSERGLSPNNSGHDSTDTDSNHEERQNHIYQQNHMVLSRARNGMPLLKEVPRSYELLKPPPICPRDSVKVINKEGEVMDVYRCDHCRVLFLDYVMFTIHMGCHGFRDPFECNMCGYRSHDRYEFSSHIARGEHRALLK
Chain of IKZF3 (Q96SW2 whole entry): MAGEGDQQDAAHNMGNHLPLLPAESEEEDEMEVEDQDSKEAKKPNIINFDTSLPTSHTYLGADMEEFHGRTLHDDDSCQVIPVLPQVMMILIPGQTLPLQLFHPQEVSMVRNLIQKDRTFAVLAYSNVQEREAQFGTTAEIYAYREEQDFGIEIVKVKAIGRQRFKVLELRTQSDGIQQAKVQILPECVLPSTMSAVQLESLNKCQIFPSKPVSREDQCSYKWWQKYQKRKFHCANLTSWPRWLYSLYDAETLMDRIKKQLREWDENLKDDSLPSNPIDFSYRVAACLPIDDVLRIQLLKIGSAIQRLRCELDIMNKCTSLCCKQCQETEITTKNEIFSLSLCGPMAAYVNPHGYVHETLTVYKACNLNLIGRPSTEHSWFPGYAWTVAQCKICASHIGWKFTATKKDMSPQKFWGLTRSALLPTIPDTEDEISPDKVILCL
Chain of IKZF3 (Q16531 whole entry partner): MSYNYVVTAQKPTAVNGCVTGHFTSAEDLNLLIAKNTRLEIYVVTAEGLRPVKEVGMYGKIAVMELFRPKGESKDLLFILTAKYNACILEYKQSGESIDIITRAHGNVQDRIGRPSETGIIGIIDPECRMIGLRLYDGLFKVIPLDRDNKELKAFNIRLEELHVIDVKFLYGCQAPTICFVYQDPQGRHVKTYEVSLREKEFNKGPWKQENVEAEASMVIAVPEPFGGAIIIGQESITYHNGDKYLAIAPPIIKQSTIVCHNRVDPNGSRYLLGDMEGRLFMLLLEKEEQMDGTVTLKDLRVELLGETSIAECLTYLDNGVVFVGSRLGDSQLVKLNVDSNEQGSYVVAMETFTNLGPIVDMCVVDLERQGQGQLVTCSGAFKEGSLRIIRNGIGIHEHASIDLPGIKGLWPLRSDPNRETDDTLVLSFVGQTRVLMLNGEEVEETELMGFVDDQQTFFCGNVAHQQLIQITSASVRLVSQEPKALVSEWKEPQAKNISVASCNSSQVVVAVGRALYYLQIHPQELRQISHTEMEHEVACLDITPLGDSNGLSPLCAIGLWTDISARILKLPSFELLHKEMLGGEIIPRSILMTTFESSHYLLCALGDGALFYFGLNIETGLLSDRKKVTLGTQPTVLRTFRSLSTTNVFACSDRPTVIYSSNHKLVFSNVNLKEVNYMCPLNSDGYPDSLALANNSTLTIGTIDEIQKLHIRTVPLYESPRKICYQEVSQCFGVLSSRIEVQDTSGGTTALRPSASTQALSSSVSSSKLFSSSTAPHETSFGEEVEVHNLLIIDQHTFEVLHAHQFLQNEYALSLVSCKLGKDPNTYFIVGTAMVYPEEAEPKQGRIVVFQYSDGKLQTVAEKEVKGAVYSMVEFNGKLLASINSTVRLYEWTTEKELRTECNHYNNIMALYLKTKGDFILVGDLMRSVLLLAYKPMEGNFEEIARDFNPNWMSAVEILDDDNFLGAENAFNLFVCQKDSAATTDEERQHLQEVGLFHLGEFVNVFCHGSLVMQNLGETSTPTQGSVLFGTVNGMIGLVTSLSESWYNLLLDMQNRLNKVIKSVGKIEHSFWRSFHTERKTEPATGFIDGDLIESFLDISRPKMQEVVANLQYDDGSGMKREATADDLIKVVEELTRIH
How it was run: as §1

IKZF1 = IKZF1 (Homo sapiens (Human), UniProt Q13422+Q96SW2); experiment: Western blot, substrate protein expression in hPBMC: IKZF1; type: cell-based; conditions: hPBMC, compound 500 nM, 24 hours, Western blot
Chain of IKZF1 (Q13422 whole entry): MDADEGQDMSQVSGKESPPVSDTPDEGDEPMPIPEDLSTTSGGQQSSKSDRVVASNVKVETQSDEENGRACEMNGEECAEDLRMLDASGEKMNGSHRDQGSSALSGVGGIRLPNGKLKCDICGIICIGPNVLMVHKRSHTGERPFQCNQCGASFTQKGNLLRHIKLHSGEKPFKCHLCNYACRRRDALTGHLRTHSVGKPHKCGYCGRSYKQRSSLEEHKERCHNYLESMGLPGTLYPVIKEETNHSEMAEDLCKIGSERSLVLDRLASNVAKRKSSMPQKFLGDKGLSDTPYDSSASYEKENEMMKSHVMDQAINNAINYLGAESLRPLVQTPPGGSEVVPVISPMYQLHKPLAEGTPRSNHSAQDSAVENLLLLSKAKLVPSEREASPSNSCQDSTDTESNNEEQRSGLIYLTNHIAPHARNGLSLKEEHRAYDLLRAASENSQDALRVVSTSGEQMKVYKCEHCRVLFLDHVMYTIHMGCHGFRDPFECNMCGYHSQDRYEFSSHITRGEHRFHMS
Chain of IKZF1 (Q96SW2 whole entry): as the sequence (Q96SW2 whole entry) above
Chain of IKZF1 (Q16531 whole entry partner): as the sequence (Q16531 whole entry partner) above
How it was run: as §1

[1] = molecular target: human Cereblon WT GST-tagged protein (Homo sapiens (Human), UniProt Q96SW2); experiment: CRBN-binding affinity, HTRF (CEREBLON BINDING kit, CISBIO); conditions: HTRF inhibitory activity
Chain of human Cereblon WT GST-tagged protein (Q96SW2 whole entry): as the sequence (Q96SW2 whole entry) above
How it was run: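 Compounds were mixed with GST-tagged human Cereblon WT protein, then with Thalidomide-Red tracer and GST Eu antibody, and binding was read by HTRF. Inhibition rate was calculated from 620 nm emission relative to blank control wells (no protein) and solvent control wells.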

Chain of GSPT1 (P15170 whole entry): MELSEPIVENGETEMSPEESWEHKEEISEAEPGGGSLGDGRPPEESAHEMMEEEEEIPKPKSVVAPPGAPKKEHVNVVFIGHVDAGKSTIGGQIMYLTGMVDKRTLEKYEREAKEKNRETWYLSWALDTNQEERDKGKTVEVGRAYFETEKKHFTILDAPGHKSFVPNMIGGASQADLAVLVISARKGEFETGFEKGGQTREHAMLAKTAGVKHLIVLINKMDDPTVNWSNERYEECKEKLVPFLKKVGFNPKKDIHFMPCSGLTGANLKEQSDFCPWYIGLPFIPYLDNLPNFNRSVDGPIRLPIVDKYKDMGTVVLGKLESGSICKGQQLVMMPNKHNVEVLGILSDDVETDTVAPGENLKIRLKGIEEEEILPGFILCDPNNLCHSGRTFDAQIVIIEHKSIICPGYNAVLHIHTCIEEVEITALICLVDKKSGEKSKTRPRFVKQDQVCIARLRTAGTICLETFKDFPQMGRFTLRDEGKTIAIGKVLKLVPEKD
Chain of GSPT1 (Q96SW2 whole entry): as the sequence (Q96SW2 whole entry) above
Chain of GSPT1 (Q16531 whole entry partner): as the sequence (Q16531 whole entry partner) above

IC50 [1] [µM] | Structure (SMILES) | substrate protein remaining % GSPT1 (GSPT1) | substrate protein remaining % IKZF3 (IKZF3) | substrate protein remaining % IKZF1 (IKZF1)
0.5 to 1 | O=C1CCC(N2Cc3cc(C(=O)N4CC5CN(C(c6ccccc6)c6ccccc6)CC5C4)ccc3C2=O)C(=O)N1 (stereo not shown) [GT-06067, 3-(5-(5-benzhydryloctahydropyrrolo[3,4-c]pyrrole-2-carbonyl)-1-oxoisoindolin-2-yl)piperidine-2,6-dione] | A (A represents 0% ≤ substrate protein remaining % ≤ 50%) | B (B represents substrate protein remaining % > 50%) | B (B represents substrate protein remaining % > 50%)
0.5 to 1 | O=C1CCC(N2Cc3cc(C(=O)N4CCN(C(c5ccccc5)c5ccccc5)CC4C(F)(F)F)ccc3C2=O)C(=O)N1 (stereo not shown) [GT-06071, 3-(5-(4-benzhydryl-2-(trifluoromethyl)piperazine-1-carbonyl)-1-oxoisoindolin-2-yl)piperidine-2,6-dione] | A (A represents 0% ≤ substrate protein remaining % ≤ 50%) | B (B represents substrate protein remaining % > 50%) | B (B represents substrate protein remaining % > 50%)
1 to 1.9 | O=C1CCC(N2Cc3cc(C(=O)N4CCN(C(c5ccccc5)c5ccccc5)CC4C(F)(F)F)cc(F)c3C2=O)C(=O)N1 (stereo not shown) [GT-06090, 3-(5-(4-benzhydryl-2-(trifluoromethyl)piperazine-1-carbonyl)-7-fluoro-1-oxoisoindolin-2-yl)piperidine-2,6-dione] | A (A represents 0% ≤ substrate protein remaining % ≤ 50%) | B (B represents substrate protein remaining % > 50%) | B (B represents substrate protein remaining % > 50%)
< 0.5 | C[C@@H]1CN(C(c2ccccc2)c2ccccc2)CCN1C(=O)c1ccc2c(c1)CN(C1CCC(=O)NC1=O)C2=O (stereo partly drawn) [GT-06092, 3-(5-((R)-4-benzhydryl-2-methylpiperazine-1-carbonyl)-1-oxoisoindolin-2-yl)piperidine-2,6-dione] | A (A represents 0% ≤ substrate protein remaining % ≤ 50%) | B (B represents substrate protein remaining % > 50%) | B (B represents substrate protein remaining % > 50%)
0.5 to 1 | C[C@@H]1CN(C(c2ccccc2)c2ccccc2)CCN1C(=O)c1cc(F)c2c(c1)CN(C1CCC(=O)NC1=O)C2=O (stereo partly drawn) [GT-06093, 3-(5-((R)-4-benzhydryl-2-methylpiperazine-1-carbonyl)-7-fluoro-1-oxoisoindolin-2-yl)piperidine-2,6-dione] | A (A represents 0% ≤ substrate protein remaining % ≤ 50%) | B (B represents substrate protein remaining % > 50%) | B (B represents substrate protein remaining % > 50%)
0.5 to 1 | O=C1CCC(N2Cc3cc(CN4CCN(C(c5ccccc5)c5ccccc5)CC4C(F)(F)F)ccc3C2=O)C(=O)N1 (stereo not shown) [GT-06095, 3-(5-((4-benzhydryl-2-(trifluoromethyl)piperazin-1-yl)methyl)-1-oxoisoindolin-2-yl)piperidine-2,6-dione] | A (A represents 0% ≤ substrate protein remaining % ≤ 50%) | B (B represents substrate protein remaining % > 50%) | B (B represents substrate protein remaining % > 50%)
0.5 to 1 | O=C1CCC(N2Cc3c(ccc(CN4CCN(C(c5ccccc5)c5ccccc5)CC4C(F)(F)F)c3F)C2=O)C(=O)N1 (stereo not shown) [GT-06096, 3-(5-((4-benzhydryl-2-(trifluoromethyl)piperazin-1-yl)methyl)-4-fluoro-1-oxoisoindolin-2-yl)piperidine-2,6-dione] | A (A represents 0% ≤ substrate protein remaining % ≤ 50%) | A (A represents 0% ≤ substrate protein remaining % ≤ 50%) | B (B represents substrate protein remaining % > 50%)
0.5 to 1 | O=C1CCC(N2Cc3cc(CN4CCN(C(c5ccccc5)c5ccccc5)CC4C(F)(F)F)c(F)cc3C2=O)C(=O)N1 (stereo not shown) [GT-06097, 3-(5-((4-benzhydryl-2-(trifluoromethyl)piperazin-1-yl)methyl)-6-fluoro-1-oxoisoindolin-2-yl)piperidine-2,6-dione] | A (A represents 0% ≤ substrate protein remaining % ≤ 50%) | B (B represents substrate protein remaining % > 50%) | B (B represents substrate protein remaining % > 50%)
1 to 1.9 | O=C1CCC(N2C(=O)c3ccc(CN4CCN(C(c5ccccc5)c5cccnc5)CC4)cc3C2=O)C(=O)N1 (stereo not shown) [GT-06114, 2-(2,6-dioxopiperidin-3-yl)-5-((4-(phenyl(pyridin-3-yl)methyl)piperazin-1-yl)methyl) isoindoline-1,3-dione] | A (A represents 0% ≤ substrate protein remaining % ≤ 50%) | B (B represents substrate protein remaining % > 50%) | B (B represents substrate protein remaining % > 50%)
0.5 to 1 | O=C1CCC(N2Cc3cccc(CN4CCN(C(c5cccc(F)c5)c5cccc(F)c5)CC4)c3C2=O)C(=O)N1 (stereo not shown) [GT-06117, 3-(7-((4-(bis(3-fluorophenyl)methyl)piperazin-1-yl)methyl)-1-oxoisoindolin-2-yl)piperidine-2,6-dione] | A (A represents 0% ≤ substrate protein remaining % ≤ 50%) | B (B represents substrate protein remaining % > 50%) | B (B represents substrate protein remaining % > 50%)
0.5 to 1 | O=C1CCC(N2C(=O)c3ccc(C(=O)N4CCN(C(c5ccccc5F)c5ccccc5F)CC4)cc3C2=O)C(=O)N1 (stereo not shown) [GT-06141, 5-(4-(bis(2-fluorophenyl)methyl)piperazine-1-carbonyl)-2-(2,6-dioxopiperidin-3-yl) isoindoline-1,3-dione] | A (A represents 0% ≤ substrate protein remaining % ≤ 50%) | B (B represents substrate protein remaining % > 50%) | B (B represents substrate protein remaining % > 50%)
0.5 to 1 | O=C1CCC(N2Cc3cc(C(=O)N4CCN(C(c5ccccc5)c5cccnc5)CC4)ccc3C2=O)C(=O)N1 (stereo not shown) [GT-06142, 3-(1-oxo-5-(4-(phenyl(pyridin-3-yl)methyl)piperazine-1-carbonyl)isoindolin-2-yl)piperidine-2,6-dione] | A (A represents 0% ≤ substrate protein remaining % ≤ 50%) | B (B represents substrate protein remaining % > 50%) | B (B represents substrate protein remaining % > 50%)
< 0.5 | O=C1CCC(N2Cc3cc(C(=O)N4CCN(C(c5cccc(F)c5)c5cccc(F)c5)CC4)cc(F)c3C2=O)C(=O)N1 (stereo not shown) [GT-06147, 3-(5-(4-(bis(3-fluorophenyl)methyl)piperazine-1-carbonyl)-7-fluoro-1-oxoisoindolin-2-yl)piperidine-2,6-dione] | A (A represents 0% ≤ substrate protein remaining % ≤ 50%) | B (B represents substrate protein remaining % > 50%) | B (B represents substrate protein remaining % > 50%)
